Experimental data taken from patent US11707464B2, “Methods of treating heavy menstrual bleeding” (AbbVie Inc., priority 2013, dated 2023).

Tests used:
Assay type in all cases: in vivo, human
[1] = tested on: premenopausal women with uterine fibroids and heavy menstrual bleeding; assay: Phase 2a uterine fibroid trial: menstrual blood loss by alkaline hematin (AH) method; details: for percent of subjects who achieved the composite bleeding endpoint (MBL <80 mL at Final Month and ≥50% reduction in MBL from baseline): last 28 days of treatment, AH method, placebo 30%; for Average Total Blood Loss Measured by AH Method During Treatment: 3 months of treatment; for Average Blood Loss Per Cycle Measured by AH Method in Screening: screening (baseline before treatment)
Experimental: Methods for analyzing menstrual blood loss are known in the art and include, for example, the alkaline hematin method. The alkaline hematin method is based on the quantitation of menstrual blood collected on sanitary products (Hallberg L., Nilsoon L., Determination of Menstrual Blood Loss. Scand. J. Clin. Lab. Invest., 1964; 16:244-248). The method uses a strong alkaline solution to chemically convert the heme from bloodstained sanitary products to alkaline hematin, which is measured colorimetrically. When compared to a subject's serum hemoglobin (Hgb), the volume of blood loss in the menstrual products can be determined.
This example is a Phase 2a, multicenter, double-blind, placebo-controlled, randomized trial (N=280) with a 3-month treatment duration evaluating the safety and efficacy of Elagolix administered with or without Activella® in premenopausal women with uterine fibroids.
It evaluates the safety and efficacy of […] of Elagolix (100 mg BID, 200 mg BID, 200 mg BID plus low dose Activella® (a combination of 0.5 mg estradiol and 0.1 mg northindrone acetate), 300 mg BID, 300 mg BID plus 1.0 mg of Estrace and 200 mg cyclical Prometrium (collectively referred to as “EP”), 400 mg QD and 600 QD) versus placebo (PBO) to reduce uterine bleeding associated with uterine fibroids and to reduce fibroid volume and uterine volume in premenopausal women 20 to 49 years of age with heavy menstrual bleeding (HMB; >80 mL blood loss per menstrual cycle). The study involved the following six (6) cohorts:
There are a number of efficacy endpoints, but a composite endpoint consisting of two bleeding assessments was used to assess one measure of efficacy. It included the percent of subjects who achieved a menstrual blood loss (MBL) volume of <80 mL at the Final Month (last 28 days of treatment), and also achieved a ≥50% reduction in MBL volume from baseline to the Final Month (last 28 days of treatment) as measured by the Alkaline Hematin (AH) method. Eighty-five percent (85%), 97%, and 30% of subjects achieved the composite bleeding assessment endpoint in the 200 mg BID, 300 mg BID, and placebo groups, respectively (P<0.05 for 200 mg BID versus placebo in cohort 1, and 300 mg BID versus placebo in cohort 2). Eighty-two percent (82%) of subjects in the 200 mg BID+low-dose Activella® (low dose Activella® is a combination of (a combination of 0.5 mg estradiol and 0.1 mg norethindrone acetate) group achieved this composite endpoint. With respect to fibroid and uterine volumes, 63%, 55%, and 29% of subjects achieved a ≥25% reduction in fibroid volume and 50%, 68%, and 9% achieved a ≥25% reduction in uterine volume in the 200 mg BID, 300 mg BID, and placebo groups, respectively. In the 200 mg BID+low dose group, 53% and 42% of subjects achieved a ≥25% reduction in fibroid and uterine volume, respectively. Quality of life (QoL) measures were also determined using the “Responsiveness of the uterine fibroid symptom and health-related quality of life questionnaire” (UFS-QOL) (Harding, Gale, Coyne Karin S., Thompson Christine L., Spies James B, United BioSource Corporation, 7101 Wisconsin Avenue, Suite 600, Bethesda, Md., 20814, USA, Health and Quality Life Outcomes, 2008, 6, page 99).

[2] = tested on: women with endometriosis; assay: Phase 2 endometriosis studies: safety and tolerability
Text: The safety and tolerability of elagolix in women with endometriosis has been evaluated in 6 completed Phase 2 studies including 708 women who received at least 1 dose of elagolix. Overall, 475 women have received elagolix for at least 12 weeks and 278 women for a period of at least 24 weeks. The majority of women were Caucasian (78.9% to 100%), while approximately 7% were black and approximately 4.5% were Hispanic. The mean age across these six Phase 2 studies was 31 to 33 years (range 18 to 48 years) and mean body mass index (BMI) of 23 to 28 kg/m. Overall, 40% to 70% of women had received prior therapy for the treatment of endometriosis, and hormonal contraceptives were the most common class of drug prescribed for the condition. In addition, the majority were receiving analgesic medications (nonsteroidal anti-inflammatory drugs, opioids, and/or other) prior to study enrollment.
None of these events were serious and they contributed to less than 1% of study discontinuations.

[3] = tested on: women; assay: Suppression of pituitary and ovarian hormones in women
Text: The term “Elagolix” refers to 4-((R)-2-[5-(2-fluoro-3-methoxy-phenyl)-3-(2-fluoro-6-trifluoromethyl-benzyl)-4-methyl-2,6-dioxo-3,6-dihydro-2H-pyrimidin-1-yl]-1-phenyl-ethylamino)-butyric acid or a pharmaceutically acceptable salt thereof. Elagolix is an orally active, non-peptide GnRH antagonist and is unlike other GnRH agonists and injectable (peptide) GnRH antagonists. […] Methods of making Elagolix and a pharmaceutically acceptable salt thereof are described in WO 2005/007165, the contents of which are herein incorporated by reference.

Structure (SMILES): COc1cccc(-c2c(C)n(Cc3c(F)cccc3C(F)(F)F)c(=O)n(C[C@H](NCCCC(=O)O)c3ccccc3)c2=O)c1F [Elagolix, 4-((R)-2-[5-(2-fluoro-3-methoxy-phenyl)-3-(2-fluoro-6-trifluoromethyl-benzyl)-4-methyl-2,6-dioxo-3,6-dihydro-2H-pyrimidin-1-yl]-1-phenyl-ethylamino)-butyric acid]
- percent of subjects who achieved the composite bleeding endpoint (MBL <80 mL at Final Month and ≥50% reduction in MBL from baseline) ([1]; 200 mg BID): 85%
- inhibition of bleeding ([1]; 300 mg BID without add-back therapy, most of women achieved amenorrhea): maximum inhibition of bleeding
- percent of subjects who achieved the composite bleeding endpoint (MBL <80 mL at Final Month and ≥50% reduction in MBL from baseline) ([1]; 300 mg BID): 97%
- inhibition of bleeding ([1]; 400 mg QD, compared with 300 mg BID): slightly less effective
- inhibition of bleeding ([1]; 600 mg QD, compared with 300 mg BID): slightly less effective
- Average Total MBL from Days 36-65 Post-Baseline ([1]; Elagolix 100 BID, N = 26): 100.9 mL
- Average Total MBL in Days 66-95 Post-Baseline ([1]; Elagolix 100 BID, N = 26): 65.4 mL
- Average total MBL from days 6-35 post-baseline ([1]; Elagolix 100 BID, N = 26): 33.2 mL
- Average Total Blood Loss Measured by AH Method During Treatment ([1]; Elagolix 100 BID, N = 26): 198.4 mL
- Average Total MBL from Days 36-65 Post-Baseline ([1]; Elagolix 200 BID, N = 28): 5.5 mL
- Average Total MBL in Days 66-95 Post-Baseline ([1]; Elagolix 200 BID, N = 28): 41.5 mL
- Average total MBL from days 6-35 post-baseline ([1]; Elagolix 200 BID, N = 28): 0 mL
- Average Total Blood Loss Measured by AH Method During Treatment ([1]; Elagolix 200 BID, N = 28): 47.0 mL
- Average Total MBL from Days 36-65 Post-Baseline ([1]; Elagolix 300 BID, N = 26): 0 mL
- Average Total MBL in Days 66-95 Post-Baseline ([1]; Elagolix 300 BID, N = 26): 4.3 mL
- Average total MBL from days 6-35 post-baseline ([1]; Elagolix 300 BID, N = 26): 0 mL
- Average Total Blood Loss Measured by AH Method During Treatment ([1]; Elagolix 300 BID, N = 26): 4.3 mL
- Average Total MBL from Days 36-65 Post-Baseline ([1]; Elagolix 400 QD, N = 26): 12.4 mL
- Average Total MBL in Days 66-95 Post-Baseline ([1]; Elagolix 400 QD, N = 26): 21.6 mL
- Average total MBL from days 6-35 post-baseline ([1]; Elagolix 400 QD, N = 26): 14.9 mL
- Average Total Blood Loss Measured by AH Method During Treatment ([1]; Elagolix 400 QD, N = 26): 38.4 mL
- Average Total MBL from Days 36-65 Post-Baseline ([1]; Elagolix 600 QD, N = 24): 35.0 mL
- Average Total MBL in Days 66-95 Post-Baseline ([1]; Elagolix 600 QD, N = 24): 14.9 mL
- Average total MBL from days 6-35 post-baseline ([1]; Elagolix 600 QD, N = 24): 27.6 mL
- Average Total Blood Loss Measured by AH Method During Treatment ([1]; Elagolix 600 QD, N = 24): 69.6 mL
- Average Blood Loss Per Cycle Measured by AH Method in Screening ([1]; group Elagolix 100 BID, N = 26): 276.4 mL
- Average Blood Loss Per Cycle Measured by AH Method in Screening ([1]; group Elagolix 200 BID, N = 28): 287.4 mL
- Average Blood Loss Per Cycle Measured by AH Method in Screening ([1]; group Elagolix 300 BID, N = 26): 224.8 mL
- Average Blood Loss Per Cycle Measured by AH Method in Screening ([1]; group Elagolix 400 QD, N = 26): 220.3 mL
- Average Blood Loss Per Cycle Measured by AH Method in Screening ([1]; group Elagolix 600 QD, N = 24): 228.7 mL
- most common adverse events ([2]; 12-week and 24-week analysis sets, incidence similar to DMPA-SC in 24-week analysis): headache and nausea
- safety and tolerability ([2]; all daily doses (100 to 250 mg) evaluated): safe and well tolerated
- incidence of AEs that led to discontinuations ([2]; completed Phase 2 endometriosis studies): 4.8%
- study discontinuations contributed by headache and nausea ([2]; none of these events serious): less than 1%
- suppression of pituitary and ovarian hormones [3]: dose dependent suppression
